In patent US8952024B2, “Herbicidal pyrimidone derivatives” (E I du Pont de Nemours and Company, priority 2009, dated 2015):

Assays:
Format in all cases: in vivo
[1] = test system: prickly sida (Sida spinosa); assay: Test D pre-/postemergence plant response
In short: (§1)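 Seeds were sown in a loam–sand blend and sprayed preemergence with compound in a non-phytotoxic solvent mixture containing surfactant; plants at 2–18 cm (1- to 4-leaf stage) received the same formulation postemergence. After 14 to 21 days in a greenhouse, injury was rated visually against untreated controls (0 = no effect, 100 = complete control).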

[2] = test system: mallow (common mallow, Malva sylvestris); assay: Test D pre-/postemergence plant response
In short: as §1

[3] = test system: itchgrass (Rottboellia cochinchinensis); assay: Test D pre-/postemergence plant response
In short: as §1

[4] = test system: field bindweed (Convolvulus arvensis); assay: Test D pre-/postemergence plant response
In short: as §1

[5] = test system: sowthistle (common sowthistle, Sonchus oleraceous); assay: Test D pre-/postemergence plant response
In short: as §1

[6] = test system: quackgrass (Elytrigia repens); assay: Test D pre-/postemergence plant response
In short: as §1

[7] = test system: bluegrass (annual bluegrass, Poa annua); assay: Test D pre-/postemergence plant response
In short: as §1

[8] = test system: sandbur (southern sandbur, Cenchrus echinatus); assay: Test D pre-/postemergence plant response
In short: as §1

[9] = test system: dayflower (Virginia (VA) dayflower, Commelina virginica); assay: Test D pre-/postemergence plant response
In short: as §1

[10] = test system: galium (catchweed bedstraw, Galium aparine); assay: Test B pre-/postemergence plant response; details: Preemergence
In short: (§2)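 Plants treated either at seeding (loam/sand soil) or postemergence at 2 to 18 cm height, using a surfactant-containing non-phytotoxic solvent formulation. Evaluation was visual after 13 to 15 days, 0 to 100 scale relative to controls.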

[11] = test system: sunflower (common oilseed sunflower, Helianthus annuus); assay: Test B pre-/postemergence plant response; details: Preemergence; for Sunflower plant response rating: 250 g ai/ha, 0 to 100 scale
In short: as §2

[12] = test system: nightshade (eastern black nightshade, Solanum ptycanthum); assay: Test B pre-/postemergence plant response; details: Preemergence; for Nightshade plant response rating: 250 g ai/ha, 0 to 100 scale
In short: as §2

[13] = Postemergence, 31 g ai/ha, scale 0 to 100
[14] = Postemergence, 62 g ai/ha, scale 0 to 100 (0 no effect, 100 complete control)
[15] = Postemergence, 125 g ai/ha, scale 0 to 100 (0 no effect, 100 complete control)
[16] = Postemergence, 16 g ai/ha, scale 0 to 100
[17] = Preemergence, 16 g ai/ha, scale 0 to 100, 0 no effect, 100 complete control
[18] = Preemergence, 31 g ai/ha, scale 0 to 100 (0 no effect, 100 complete control)
[19] = Preemergence, 62 g ai/ha, scale 0 to 100
[20] = Preemergence, 125 g ai/ha, scale 0 to 100
[21] = 31 g ai/ha, scale 0 to 100 (0 no effect, 100 complete control)
[22] = 62 g ai/ha, scale 0 to 100 (0 no effect, 100 complete control)
[23] = 125 g ai/ha, scale 0 to 100, 0 no effect, 100 complete control
[24] = Postemergence, 250 g ai/ha, scale 0 to 100 (0 no effect, 100 complete control)
[25] = Preemergence, 250 g ai/ha, scale 0 to 100

O=C1CCCC(O)=C1C(=O)c1cnc(-c2ccccc2)n(CC2CCCO2)c1=O (centres unmarked) [Compound 59]
Plant response rating, Prickly Sida [1, 13]: 40 | Plant response rating, Prickly Sida [1, 14]: 70 | Plant response rating, Prickly Sida [1, 15]: 70 | Plant response rating, Prickly Sida [1, 16]: 40 | Plant response rating, Prickly Sida [1, 17]: 0 | Plant response rating, Prickly Sida [1, 18]: 0 | Plant response rating, Prickly Sida [1, 19]: 5 | Plant response rating, Prickly Sida [1, 20]: 65 | Plant response rating, Mallow [2, 13]: 5 | Plant response rating, Mallow [2, 14]: 5 | Plant response rating, Mallow [2, 15]: 40 | Plant response rating, Mallow [2, 16]: 0 | Plant response rating, Mallow [2, 17]: 0 | Plant response rating, Mallow [2, 18]: 65 | Plant response rating, Mallow [2, 19]: 65 | Plant response rating, Mallow [2, 20]: 65 | Plant response rating, Itchgrass [3, 13]: 15 | Plant response rating, Itchgrass [3, 14]: 15 | Plant response rating, Itchgrass [3, 15]: 75 | Plant response rating, Itchgrass [3, 16]: 0 | Plant response rating, Itchgrass [3, 17]: 0 | Plant response rating, Itchgrass [3, 18]: 0 | Plant response rating, Itchgrass [3, 19]: 0 | Plant response rating, Itchgrass [3, 20]: 20 | Plant response rating, Field Bindweed [4, 13]: 5 | Plant response rating, Field Bindweed [4, 14]: 30 | Plant response rating, Field Bindweed [4, 15]: 60 | Plant response rating, Field Bindweed [4, 16]: 5 | Plant response rating, Field Bindweed [4, 17]: 0 | Plant response rating, Field Bindweed [4, 18]: 0 | Plant response rating, Field Bindweed [4, 19]: 20 | Plant response rating, Field Bindweed [4, 20]: 60 | Plant response rating, Sowthistle [5, 13]: 100 | Plant response rating, Sowthistle [5, 14]: 100 | Plant response rating, Sowthistle [5, 15]: 100 | Plant response rating, Sowthistle [5, 16]: 70 | Plant response rating, Sowthistle [5, 17]: 0 | Plant response rating, Sowthistle [5, 18]: 95 | Plant response rating, Sowthistle [5, 20]: 100 | Plant response rating, Quackgrass [6, 13]: 0 | Plant response rating, Quackgrass [6, 14]: 0 | Plant response rating, Quackgrass [6, 15]: 0 | Plant response rating, Quackgrass [6, 16]: 0 | Plant response rating, Quackgrass [6, 17]: 0 | Plant response rating, Quackgrass [6, 18]: 0 | Plant response rating, Quackgrass [6, 20]: 0 | Plant response rating, Bluegrass ([7]; Postemergence, 31 g ai/ha, scale 0 to 100 (0 no effect, 100 complete control)): 0 | Plant response rating, Bluegrass [7, 14]: 0 | Plant response rating, Bluegrass [7, 15]: 5 | Plant response rating, Bluegrass [7, 16]: 0 | Plant response rating, Bluegrass [7, 17]: 0 | Plant response rating, Bluegrass [7, 18]: 0 | Plant response rating, Bluegrass [7, 19]: 15 | Plant response rating, Bluegrass [7, 20]: 30 | Plant response rating, Sandbur [8, 13]: 5 | Plant response rating, Sandbur [8, 14]: 5 | Plant response rating, Sandbur [8, 15]: 25 | Plant response rating, Sandbur [8, 16]: 5 | Plant response rating, Sandbur [8, 17]: 0 | Plant response rating, Sandbur [8, 18]: 0 | Plant response rating, Sandbur [8, 20]: 0 | Plant response rating, Dayflower, VA [9, 14]: 60 | Plant response rating, Dayflower, VA [9, 16]: 25 | Plant response rating, Dayflower, VA [9, 18]: 0 | Plant response rating, Dayflower, VA [9, 19]: 35 | Plant response rating, Dayflower, VA [9, 20]: 35 | Plant response rating, Galium ([10]; 250 g ai/ha, 0 to 100 scale): 98 | Plant response rating, Galium [10, 21]: 0 | Plant response rating, Galium [10, 22]: 90 | Plant response rating, Galium [10, 23]: 95 | Plant response rating, Sunflower [11, 21]: 55 | Plant response rating, Sunflower [11, 22]: 65 | Plant response rating, Sunflower [11, 23]: 70 | Plant response rating, Nightshade [12, 21]: 95 | Plant response rating, Nightshade [12, 22]: 98 | Plant response rating, Nightshade [12, 23]: 100

COCCn1c(-c2cc(F)cc(F)c2)ncc(C(=O)C2=C(O)C3CCC(C3)C2=O)c1=O (centres unmarked) [Compound 243, 2-(3,5-difluorophenyl)-5-[(2-hydroxy-4-oxobicyclo[3.2.1]oct-2-en-3-yl)carbonyl]-3-(2-methoxyethyl)-4(3H)-pyrimidinone]
Plant response rating, Prickly Sida [1, 13]: 60 | Plant response rating, Prickly Sida [1, 14]: 65 | Plant response rating, Prickly Sida [1, 15]: 70 | Plant response rating, Prickly Sida [1, 24]: 80 | Plant response rating, Prickly Sida [1, 19]: 100 | Plant response rating, Prickly Sida [1, 20]: 100 | Plant response rating, Prickly Sida [1, 25]: 100 | Plant response rating, Mallow [2, 13]: 50 | Plant response rating, Mallow [2, 14]: 60 | Plant response rating, Mallow [2, 15]: 70 | Plant response rating, Mallow [2, 24]: 70 | Plant response rating, Mallow [2, 19]: 50 | Plant response rating, Mallow [2, 20]: 80 | Plant response rating, Mallow [2, 25]: 98 | Plant response rating, Itchgrass [3, 13]: 75 | Plant response rating, Itchgrass [3, 14]: 75 | Plant response rating, Itchgrass [3, 15]: 75 | Plant response rating, Itchgrass [3, 24]: 85 | Plant response rating, Itchgrass [3, 19]: 25 | Plant response rating, Itchgrass [3, 20]: 50 | Plant response rating, Itchgrass [3, 25]: 100 | Plant response rating, Field Bindweed [4, 13]: 65 | Plant response rating, Field Bindweed [4, 14]: 70 | Plant response rating, Field Bindweed [4, 15]: 70 | Plant response rating, Field Bindweed [4, 24]: 70 | Plant response rating, Field Bindweed [4, 19]: 100 | Plant response rating, Field Bindweed [4, 20]: 100 | Plant response rating, Field Bindweed [4, 25]: 100 | Plant response rating, Sowthistle [5, 13]: 90 | Plant response rating, Sowthistle [5, 14]: 90 | Plant response rating, Sowthistle [5, 15]: 95 | Plant response rating, Sowthistle [5, 24]: 98 | Plant response rating, Quackgrass [6, 13]: 35 | Plant response rating, Quackgrass [6, 14]: 40 | Plant response rating, Quackgrass [6, 15]: 70 | Plant response rating, Quackgrass [6, 24]: 75 | Plant response rating, Quackgrass [6, 20]: 85 | Plant response rating, Quackgrass [6, 25]: 98 | Plant response rating, Bluegrass [7, 13]: 5 | Plant response rating, Bluegrass [7, 14]: 5 | Plant response rating, Bluegrass [7, 15]: 35 | Plant response rating, Bluegrass [7, 24]: 35 | Plant response rating, Bluegrass [7, 19]: 40 | Plant response rating, Bluegrass [7, 20]: 95 | Plant response rating, Bluegrass [7, 25]: 100 | Plant response rating, Sandbur [8, 13]: 75 | Plant response rating, Sandbur [8, 14]: 75 | Plant response rating, Sandbur [8, 15]: 75 | Plant response rating, Sandbur [8, 24]: 80 | Plant response rating, Sandbur [8, 20]: 100 | Plant response rating, Sandbur [8, 25]: 100 | Plant response rating, Dayflower, VA [9, 13]: 35 | Plant response rating, Dayflower, VA [9, 14]: 65 | Plant response rating, Dayflower, VA [9, 15]: 70 | Plant response rating, Dayflower, VA [9, 24]: 75 | Plant response rating, Dayflower, VA [9, 19]: 100 | Plant response rating, Dayflower, VA [9, 20]: 100 | Plant response rating, Dayflower, VA [9, 25]: 100 | Plant response rating, Galium [10, 21]: 85 | Plant response rating, Galium [10, 22]: 90 | Plant response rating, Galium [10, 23]: 98 | Galium plant response rating ([10]; 250 g ai/ha, 0 to 100 scale): 100 | Plant response rating, Sunflower [11, 21]: 80 | Plant response rating, Sunflower [11, 22]: 85 | Plant response rating, Sunflower [11, 23]: 95 | Sunflower plant response rating [11]: 95 | Plant response rating, Nightshade [12, 21]: 90 | Plant response rating, Nightshade [12, 22]: 98 | Plant response rating, Nightshade [12, 23]: 98 | Nightshade plant response rating [12]: 98

CCCCn1c(-c2cc(F)cc(F)c2)ncc(C(=O)C2=C(O)C3CCC(C3)C2=O)c1=O (centres unmarked) [Compound 245]
Plant response rating, Prickly Sida [1, 13]: 30 | Plant response rating, Prickly Sida [1, 14]: 50 | Plant response rating, Prickly Sida [1, 15]: 50 | Plant response rating, Prickly Sida [1, 24]: 70 | Plant response rating, Mallow [2, 13]: 35 | Plant response rating, Mallow [2, 14]: 50 | Plant response rating, Mallow [2, 15]: 50 | Plant response rating, Mallow [2, 24]: 70 | Plant response rating, Itchgrass [3, 13]: 70 | Plant response rating, Itchgrass [3, 14]: 70 | Plant response rating, Itchgrass [3, 15]: 75 | Plant response rating, Itchgrass [3, 24]: 75 | Plant response rating, Field Bindweed [4, 13]: 50 | Plant response rating, Field Bindweed [4, 14]: 50 | Plant response rating, Field Bindweed [4, 15]: 60 | Plant response rating, Field Bindweed [4, 24]: 70 | Plant response rating, Sowthistle [5, 13]: 95 | Plant response rating, Sowthistle [5, 14]: 95 | Plant response rating, Sowthistle [5, 15]: 95 | Plant response rating, Sowthistle [5, 24]: 95 | Plant response rating, Quackgrass [6, 13]: 20 | Plant response rating, Quackgrass [6, 14]: 35 | Plant response rating, Quackgrass [6, 15]: 40 | Plant response rating, Quackgrass [6, 24]: 65 | Plant response rating, Bluegrass [7, 13]: 5 | Plant response rating, Bluegrass [7, 14]: 20 | Plant response rating, Bluegrass [7, 15]: 35 | Plant response rating, Bluegrass [7, 24]: 35 | Plant response rating, Sandbur [8, 13]: 65 | Plant response rating, Sandbur [8, 14]: 70 | Plant response rating, Sandbur [8, 15]: 75 | Plant response rating, Sandbur [8, 24]: 75 | Plant response rating, Dayflower, VA [9, 13]: 20 | Plant response rating, Dayflower, VA [9, 14]: 35 | Plant response rating, Dayflower, VA [9, 15]: 65 | Plant response rating, Dayflower, VA [9, 24]: 75 | Plant response rating, Galium [10, 21]: 20 | Plant response rating, Galium [10, 22]: 60 | Plant response rating, Galium [10, 23]: 95 | Galium plant response rating ([10]; 250 g ai/ha, 0 to 100 scale): 95 | Plant response rating, Sunflower [11, 21]: 45 | Plant response rating, Sunflower [11, 22]: 70 | Plant response rating, Sunflower [11, 23]: 80 | Sunflower plant response rating [11]: 95 | Plant response rating, Nightshade [12, 21]: 98 | Plant response rating, Nightshade [12, 22]: 100 | Plant response rating, Nightshade [12, 23]: 100 | Nightshade plant response rating [12]: 100
